From patent US20230085307A1, “PYRIDAZINONE COMPOUND AND HERBICIDE” (NISSAN CHEMICAL CORPORATION, priority 2019, published 2023)

Experiments:
lambsquarters = assay: Test Example 5: herbicidal effect by foliage application, plastic box (Table 20, symbol O); format: in vivo, lambsquarters (Chenopodium album)
Method in brief: (§1)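 Foliar spray test: emulsion formulation diluted in water to a set application rate, sprayed onto 14-day-old plants raised in diluvial soil at 25° C to 30° C under glass. Both herbicidal effect and crop effect rated visually three weeks later.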

wild oat = assay: Test Example 5: herbicidal effect by foliage application, plastic box (Table 20, symbol I); format: in vivo, wild oat (Avena fatua)
Method in brief: as §1

persian speedwell = assay: Test Example 5: herbicidal effect by foliage application, plastic box (Table 20, symbol R); format: in vivo, Persian speedwell (Veronica persica)
Method in brief: as §1

false cleavers = assay: Test Example 5: herbicidal effect by foliage application, plastic box (Table 20, symbol Q); format: in vivo, false cleavers (Galium spurium)
From the text: [Test Example 5] Herbicidal Effect Test by Foliage Application
Sterilized diluvial soil was placed in a plastic box having a length of 21 cm, a width of 13 cm, and a depth of 7 cm. The seeds of each of southern crabgrass, green foxtail, barnyard grass, wild oat, blackgrass, Italian ryegrass, windgrass, velvetleaf, redroot pigweed, lambsquarters, chickweed, false cleavers, persian speedwell, corn, soybean, rice, wheat, beet, and rapeseed were sowed in a spot-like manner and covered with the soil having a thickness of about 1.5 cm. Thereafter, the plants were grown in a greenhouse at 25° C. to 30° C. After 14-day growth of the plants, the emulsion agent of the compound of the present invention prepared according to Formulation Example 2 was diluted with water so as to achieve a predetermined herbicide amount, and the diluted emulsion agent was uniformly applied to a foliage part with a small-sized spray. Three weeks after the herbicide application, the effect of the herbicide on each plant was evaluated according to the criteria of Test Example 1.

barnyard grass [1] = assay: Test Example 3: herbicidal effect by foliage application, Wagner pot (Table 18, symbol H); format: in vivo, barnyard grass (Echinochloa crus-galli)
Method in brief: (§2)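 Plants were sown in alluvial soil held under 0.1–0.5 cm standing water and grown 14 days in a greenhouse at 25–30 °C. An emulsifiable formulation, water-diluted to the set dose, was then sprayed onto the foliage, and effects were scored three weeks later using previously defined criteria.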

windgrass = assay: Test Example 5: herbicidal effect by foliage application, plastic box (Table 20, symbol L); format: in vivo, windgrass (Apera spica-venti)
Method in brief: as §1

redroot pigweed = assay: Test Example 5: herbicidal effect by foliage application, plastic box (Table 20, symbol N); format: in vivo, redroot pigweed (Amaranthus retroflexus)
Method in brief: as §1

barnyard grass [2] = assay: Test Example 5: herbicidal effect by foliage application, plastic box (Table 20, symbol H); format: in vivo, barnyard grass (Echinochloa crus-galli)
Method in brief: as §1

rice flat sedge = assay: Test Example 3: herbicidal effect by foliage application, Wagner pot (Table 18, symbol E); format: in vivo, rice flat sedge (Cyperus iria)
Method in brief: as §2

Chinese sprangletop = assay: Test Example 3: herbicidal effect by foliage application, Wagner pot (Table 18, symbol D); format: in vivo, chinese sprangletop (Leptochloa chinensis)
Method in brief: as §2

chickweed = assay: Test Example 5: herbicidal effect by foliage application, plastic box (Table 20, symbol P); format: in vivo, common chickweed (Stellaria media)
Method in brief: as §1

velvetleaf = assay: Test Example 5: herbicidal effect by foliage application, plastic box (Table 20, symbol M); format: in vivo, velvetleaf (Abutilon theophrasti)
Method in brief: as §1

southern crabgrass = assay: Test Example 5: herbicidal effect by foliage application, plastic box (Table 20, symbol F); format: in vivo, southern crabgrass (Digitaria ciliaris)
Method in brief: as §1

green foxtail = assay: Test Example 5: herbicidal effect by foliage application, plastic box (Table 20, symbol G); format: in vivo, green foxtail (Setaria viridis)
Method in brief: as §1

Italian ryegrass = assay: Test Example 5: herbicidal effect by foliage application, plastic box (Table 20, symbol K); format: in vivo, Italian ryegrass (Lolium multiflorum)
Method in brief: as §1

blackgrass = assay: Test Example 5: herbicidal effect by foliage application, plastic box (Table 20, symbol J); format: in vivo, blackgrass (Alopecurus myosuroides)
Method in brief: as §1

[3] = foliage application, AAH 197 g/ha, three weeks after application
[4] = foliage application, AAH 320 g/ha, three weeks after application
[5] = foliage application, 320 g/ha, evaluated three weeks after application
[6] = foliage application, 320 g/ha, three weeks after application
[7] = 320 g/ha, foliage application after 14-day growth, evaluated three weeks after application

Cc1nn(C)c(=O)c(-c2c(-c3cc4c(cc3Cl)OCCO4)sc3ccccc23)c1O [1-095]
O: lambsquarters, herbicidal effect (lambsquarters; [3]): 0 (Herbicidal rate of 5% or less (almost no effect))
I: wild oat, herbicidal effect (wild oat; [3]): 0 (Herbicidal rate of 5% or less (almost no effect))
R: persian speedwell, herbicidal effect (persian speedwell; [3]): 4 (Herbicidal rate of 70% or more and less than 90%)
Q: false cleavers, herbicidal effect (false cleavers; [3]): 3 (Herbicidal rate of 40% or more and less than 70%)
herbicidal effect on H (barnyard grass), rating 0-5 (barnyard grass [1]; 197 g/ha): 4 (Herbicidal rate of 70% or more and less than 90%)
L: windgrass, herbicidal effect (windgrass; [3]): 0 (Herbicidal rate of 5% or less (almost no effect))
N: redroot pigweed, herbicidal effect (redroot pigweed; [3]): 0 (Herbicidal rate of 5% or less (almost no effect))
H: barnyard grass, herbicidal effect (barnyard grass [2]; [3]): 0 (Herbicidal rate of 5% or less (almost no effect))
herbicidal effect on E (rice flat sedge), rating 0-5 (rice flat sedge; 197 g/ha): 1 (Herbicidal rate of 5% or more and less than 20%)
herbicidal effect on D (Chinese sprangletop), rating 0-5 (Chinese sprangletop; 197 g/ha): 0 (Herbicidal rate of 5% or less (almost no effect))
P: chickweed, herbicidal effect (chickweed; [3]): 3 (Herbicidal rate of 40% or more and less than 70%)
M: velvetleaf, herbicidal effect (velvetleaf; [3]): 0 (Herbicidal rate of 5% or less (almost no effect))
F: southern crabgrass, herbicidal effect (southern crabgrass; [3]): 0 (Herbicidal rate of 5% or less (almost no effect))
G: green foxtail, herbicidal effect (green foxtail; [3]): 0 (Herbicidal rate of 5% or less (almost no effect))
K: Italian ryegrass, herbicidal effect (Italian ryegrass; [3]): 0 (Herbicidal rate of 5% or less (almost no effect))
J: blackgrass, herbicidal effect (blackgrass; [3]): 0 (Herbicidal rate of 5% or less (almost no effect))

Cc1nn(C)c(=O)c(-c2c(-c3ccc(Oc4ccccc4)cc3)sc3ccccc23)c1O [1-149]
O: lambsquarters, herbicidal effect (lambsquarters; [4]): 4 (Herbicidal rate of 70% or more and less than 90%)
I: wild oat, herbicidal effect (wild oat; [4]): 0 (Herbicidal rate of 5% or less (almost no effect))
R: persian speedwell, herbicidal effect (persian speedwell; [4]): 5 (Herbicidal rate of 90% or more (almost completely withered))
Q: false cleavers, herbicidal effect (false cleavers; [4]): 5 (Herbicidal rate of 90% or more (almost completely withered))
herbicidal effect on H (barnyard grass), rating 0-5 (barnyard grass [1]; 320 g/ha): 3 (Herbicidal rate of 40% or more and less than 70%)
L: windgrass, herbicidal effect (windgrass; [4]): 0 (Herbicidal rate of 5% or less (almost no effect))
N: redroot pigweed, herbicidal effect (redroot pigweed; [4]): 5 (Herbicidal rate of 90% or more (almost completely withered))
H: barnyard grass, herbicidal effect (barnyard grass [2]; [4]): 3 (Herbicidal rate of 40% or more and less than 70%)
herbicidal effect on E (rice flat sedge), rating 0-5 (rice flat sedge; 320 g/ha): 5 (Herbicidal rate of 90% or more (almost completely withered))
herbicidal effect on D (Chinese sprangletop), rating 0-5 (Chinese sprangletop; 320 g/ha): 3 (Herbicidal rate of 40% or more and less than 70%)
P: chickweed, herbicidal effect (chickweed; [4]): 3 (Herbicidal rate of 40% or more and less than 70%)
M: velvetleaf, herbicidal effect (velvetleaf; [4]): 2 (Herbicidal rate of 20% or more and less than 40%)
F: southern crabgrass, herbicidal effect (southern crabgrass; [4]): 3 (Herbicidal rate of 40% or more and less than 70%)
G: green foxtail, herbicidal effect (green foxtail; [4]): 4 (Herbicidal rate of 70% or more and less than 90%)
K: Italian ryegrass, herbicidal effect (Italian ryegrass; [4]): 0 (Herbicidal rate of 5% or less (almost no effect))
J: blackgrass, herbicidal effect (blackgrass; [4]): 0 (Herbicidal rate of 5% or less (almost no effect))

COc1cc(F)ccc1-c1sc2ccc(-c3ccc(OC(C)C)cc3)cc2c1-c1c(O)c(C)nn(C)c1=O [2-167]
herbicidal effect on O: lambsquarters (criteria 0-5) (lambsquarters; [5]): 0 (Herbicidal rate of 5% or less (almost no effect))
herbicidal effect on I: wild oat (criteria 0-5) (wild oat; [5]): 0 (Herbicidal rate of 5% or less (almost no effect))
herbicidal effect on R: persian speedwell (criteria 0-5) (persian speedwell; [5]): 0 (Herbicidal rate of 5% or less (almost no effect))
herbicidal effect on Q: false cleavers (criteria 0-5) (false cleavers; [5]): 0 (Herbicidal rate of 5% or less (almost no effect))
herbicidal effect on L: windgrass (criteria 0-5) (windgrass; [5]): 0 (Herbicidal rate of 5% or less (almost no effect))
herbicidal effect on N: redroot pigweed (criteria 0-5) (redroot pigweed; [5]): 3 (Herbicidal rate of 40% or more and less than 70%)
herbicidal effect on H: barnyard grass (criteria 0-5) (barnyard grass [2]; [5]): 0 (Herbicidal rate of 5% or less (almost no effect))
herbicidal effect on P: chickweed (criteria 0-5) (chickweed; [5]): 0 (Herbicidal rate of 5% or less (almost no effect))
herbicidal effect on M: velvetleaf (criteria 0-5) (velvetleaf; [5]): 0 (Herbicidal rate of 5% or less (almost no effect))
herbicidal effect on F: southern crabgrass (criteria 0-5) (southern crabgrass; [5]): 0 (Herbicidal rate of 5% or less (almost no effect))
herbicidal effect on G: green foxtail (criteria 0-5) (green foxtail; [5]): 0 (Herbicidal rate of 5% or less (almost no effect))
herbicidal effect on K: Italian ryegrass (criteria 0-5) (Italian ryegrass; [5]): 0 (Herbicidal rate of 5% or less (almost no effect))
herbicidal effect on J: blackgrass (criteria 0-5) (blackgrass; [5]): 0 (Herbicidal rate of 5% or less (almost no effect))

CCCC(=O)Oc1c(C)nn(C)c(=O)c1-c1c(-c2ccc(OC)cc2)sc2cc(C)ccc12 [3-052]
O: lambsquarters, herbicidal effect grade (lambsquarters; [6]): 0 (Herbicidal rate of 5% or less (almost no effect))
I: wild oat, herbicidal effect grade (wild oat; [6]): 0 (Herbicidal rate of 5% or less (almost no effect))
R: persian speedwell, herbicidal effect grade (persian speedwell; [6]): 5 (Herbicidal rate of 90% or more (almost completely withered))
Q: false cleavers, herbicidal effect grade (false cleavers; [6]): 2 (Herbicidal rate of 20% or more and less than 40%)
L: windgrass, herbicidal effect grade (windgrass; [6]): 0 (Herbicidal rate of 5% or less (almost no effect))
N: redroot pigweed, herbicidal effect grade (redroot pigweed; [6]): 0 (Herbicidal rate of 5% or less (almost no effect))
H: barnyard grass, herbicidal effect grade (barnyard grass [2]; [6]): 0 (Herbicidal rate of 5% or less (almost no effect))
P: chickweed, herbicidal effect grade (chickweed; [6]): 5 (Herbicidal rate of 90% or more (almost completely withered))
M: velvetleaf, herbicidal effect grade (velvetleaf; [6]): 3 (Herbicidal rate of 40% or more and less than 70%)
F: southern crabgrass, herbicidal effect grade (southern crabgrass; [6]): 0 (Herbicidal rate of 5% or less (almost no effect))
G: green foxtail, herbicidal effect grade (green foxtail; [6]): 3 (Herbicidal rate of 40% or more and less than 70%)
K: Italian ryegrass, herbicidal effect grade (Italian ryegrass; [6]): 0 (Herbicidal rate of 5% or less (almost no effect))
J: blackgrass, herbicidal effect grade (blackgrass; [6]): 0 (Herbicidal rate of 5% or less (almost no effect))

COc1cccc(-c2sc3c(Cl)cccc3c2-c2c(O)c(C)nn(C)c2=O)c1 [4-064]
herbicidal effect on O: lambsquarters (evaluation grade 0-5) (lambsquarters; [7]): 3 (Herbicidal rate of 40% or more and less than 70%)
herbicidal effect on I: wild oat (evaluation grade 0-5) (wild oat; [7]): 0 (Herbicidal rate of 5% or less (almost no effect))
herbicidal effect on R: persian speedwell (evaluation grade 0-5) (persian speedwell; [7]): 5 (Herbicidal rate of 90% or more (almost completely withered))
herbicidal effect on Q: false cleavers (evaluation grade 0-5) (false cleavers; [7]): 1 (Herbicidal rate of 5% or more and less than 20%)
herbicidal effect on barnyard grass (H) (barnyard grass [1]; 320 g/ha): 4 (Herbicidal rate of 70% or more and less than 90%)
herbicidal effect on L: windgrass (evaluation grade 0-5) (windgrass; [7]): 5 (Herbicidal rate of 90% or more (almost completely withered))
herbicidal effect on N: redroot pigweed (evaluation grade 0-5) (redroot pigweed; [7]): 5 (Herbicidal rate of 90% or more (almost completely withered))
herbicidal effect on H: barnyard grass (evaluation grade 0-5) (barnyard grass [2]; [7]): 1 (Herbicidal rate of 5% or more and less than 20%)
herbicidal effect on rice flat sedge (E) (rice flat sedge; 320 g/ha): 4 (Herbicidal rate of 70% or more and less than 90%)
herbicidal effect on Chinese sprangletop (D) (Chinese sprangletop; 320 g/ha): 3 (Herbicidal rate of 40% or more and less than 70%)
herbicidal effect on P: chickweed (evaluation grade 0-5) (chickweed; [7]): 5 (Herbicidal rate of 90% or more (almost completely withered))
herbicidal effect on M: velvetleaf (evaluation grade 0-5) (velvetleaf; [7]): 3 (Herbicidal rate of 40% or more and less than 70%)
herbicidal effect on F: southern crabgrass (evaluation grade 0-5) (southern crabgrass; [7]): 1 (Herbicidal rate of 5% or more and less than 20%)
herbicidal effect on G: green foxtail (evaluation grade 0-5) (green foxtail; [7]): 3 (Herbicidal rate of 40% or more and less than 70%)
herbicidal effect on K: Italian ryegrass (evaluation grade 0-5) (Italian ryegrass; [7]): 3 (Herbicidal rate of 40% or more and less than 70%)
herbicidal effect on J: blackgrass (evaluation grade 0-5) (blackgrass; [7]): 0 (Herbicidal rate of 5% or less (almost no effect))
